From ChEMBL document CHEMBL5131473, “One-pot synthesis of oxoaporphines as potent antitumor agents and investigation of their mechanisms of actions” (Eur J Med Chem, 2022)
Calls of active or inactive are those of the source. The calls are words filed in the database; no cut-off is given here.

Experiments:
T-24 [1] = experiment: Induction of apoptosis in human T24 cells assessed as early apoptotic cells at 15 uM incubated for 24 hrs by Annexin-V/PI staining based flow cytometry analysis (reference value: 3.27 %); type: functional
T-24 [2] = experiment: Induction of Ca2+ production in human T24 cells assessed as increase in intracellular Ca2+ concentration at 10 uM by Fluo3-AM staining based fluorescence microscopic method; type: functional, cell-based
T-24 [3] = experiment: Induction of ROS accumulation in human T24 cells assessed as increase in intracellular ROS level at 10 uM by […] based flow cytometry; type: functional, cell-based
T-24 [4] = experiment: Induction of apoptosis in human T24 cells assessed as late apoptotic cells at 15 uM incubated for 24 hrs by Annexin-V/PI staining based flow cytometry analysis (reference value: 0.543 %); type: functional
T-24 [5] = experiment: Induction of mitochondrial membrane potential dysfunction in human T24 cells assessed as disappearance of cristae at 10 uM incubated for 24 hrs by TEM analysis; type: functional, cell-based
T-24 [6] = experiment: Induction of apoptosis in human T24 cells assessed as late apoptotic cells at 20 uM incubated for 24 hrs by Annexin-V/PI staining based flow cytometry analysis (reference value: 0.543 %); type: functional
T-24 [7] = experiment: Induction of cell cycle arrest in human T24 cells assessed as increase in Cyclin B expression at 10 to 15 uM incubated for 24 hrs by chemiluminescence based Western blotting analysis; type: functional; conditions: dose 10-15 µM, DDE = dose-dependent effect
T-24 [8] = experiment: Induction of mitochondrial mediated apoptosis in human T24 cells assessed as upregulation of apaf-1 expression at 10 to 15 uM incubated for 24 hrs by Western blotting analysis; type: functional, cell-based; conditions: dose 10-15 µM
T-24 [9] = experiment: Induction of DNA damage in human T24 cells assessed as increase in gamma H2AX phosphorylation at 10 uM incubated for 24 hrs by Hoechst33258 staining based immunofluorescence assay; type: functional, cell-based
T-24 [10] = experiment: Induction of mitochondrial membrane potential dysfunction in human T24 cells assessed as mitochondrial fragment condensation at 10 to 15 uM by mito-tracker green dye based fluorescence microscopy; type: functional, cell-based; conditions: dose 10-15 µM
T-24 [11] = experiment: Potency index, ratio of oxoaporphine IC50 to test compound IC50 for anticancer activity against human T24 cells; type: functional
T-24 [12] = experiment: Induction of DNA damage in human T24 cells assessed as DNA strand breakage by measuring comet formation at 0.5 uM incubated for 24 hrs by comet assay; type: functional, cell-based
T-24 [13] = experiment: Induction of ROS accumulation in human T24 cells assessed as increase in intracellular ROS level at 0.5 uM by […] based flow cytometry; type: functional, cell-based
T-24 [14] = experiment: Induction of apoptosis in human T24 cells assessed as contracted small fragmented nuclei at 0.5 uM by Hoechst33258 staining based fluorescence microscopy; type: functional, cell-based
T-24 [15] = experiment: Induction of mitochondrial membrane potential dysfunction in human T24 cells assessed as depolarised cells at 1 uM incubated for 24 hrs by JC-1 staining based flow cytometry (reference value: 6.20%); type: functional
T-24 [16] = experiment: Induction of mitochondrial membrane potential dysfunction in human T24 cells assessed as disappearance of cristae at 0.5 uM incubated for 24 hrs by TEM analysis; type: functional, cell-based
T-24 [17] = experiment: Induction of DNA damage in human T24 cells assessed as increase in gamma H2AX phosphorylation at 0.5 uM incubated for 24 hrs by Hoechst33258 staining based immunofluorescence assay; type: functional, cell-based
T-24 [18] = experiment: Induction of cell cycle arrest in human T24 cells assessed as increase in Cyclin B expression at 0.5 to 1 uM incubated for 24 hrs by chemiluminescence based Western blotting analysis; type: functional; conditions: dose 0.5-1 µM, DDE = dose-dependent effect
T-24 [19] = experiment: Induction of apoptosis in human T24 cells assessed as viable cells at 1 uM incubated for 24 hrs by Annexin-V/PI staining based flow cytometry analysis (reference value: 94.3 %); type: functional; conditions: read-out: Activity
T-24 [20] = experiment: Induction of apoptosis in human T24 cells assessed as increase in caspase 9 activity at 1 uM (Rvb= 7.2%); type: functional
T-24 [21] = experiment: Induction of cell cycle arrest in human T24 cells assessed as upregulation of CDK2 expression at 2 to 4 uM incubated for 24 hrs by chemiluminescence based Western blotting analysis; type: functional; conditions: dose 2-4 µM
T-24 [22] = experiment: Induction of DNA damage in human T24 cells assessed as DNA strand breakage by measuring comet formation at 2 uM incubated for 24 hrs by comet assay; type: functional, cell-based
T-24 [23] = experiment: Induction of apoptosis in human T24 cells assessed as late apoptotic cells at 6 uM incubated for 24 hrs by Annexin-V/PI staining based flow cytometry analysis (reference value: 0.543 %); type: functional
T-24 [24] = experiment: Induction of apoptosis in human T24 cells assessed as condensation of nuclei at 2 uM by Hoechst33258 staining based fluorescence microscopy; type: functional, cell-based
T-24 [25] = experiment: Induction of apoptosis in human T24 cells assessed as viable cells at 4 uM incubated for 24 hrs by Annexin-V/PI staining based flow cytometry analysis (reference value: 94.3 %); type: functional; conditions: read-out: Activity
T-24 [26] = experiment: Induction of cell cycle arrest in human T24 cells assessed as upregulation of Cyclin E expression at 2 to 4 uM incubated for 24 hrs by chemiluminescence based Western blotting analysis; type: functional; conditions: dose 2-4 µM
T-24 [27] = experiment: Induction of apoptosis in human T24 cells assessed as increase in caspase 9 activity at 2uM (Rvb= 7.2%); type: functional
T-24 [28] = experiment: Induction of cell cycle arrest in human T24 cells assessed as accumulation of cells at G1 phase at 4 uM incubated for 24 hrs by propidium iodide/RNase A staining based flow cytometry analysis (reference value: 51.71 %); type: functional
T-24 [29] = experiment: Induction of mitochondrial mediated apoptosis in human T24 cells assessed as upregulation of cytochrome c expression at 2 to 4 uM incubated for 24 hrs by Western blotting analysis; type: functional, cell-based; conditions: dose 2-4 µM
T-24 [30] = experiment: Cytotoxicity against human T24 cells assessed as decrease in cell viability at 2 uM by MTT assay; type: toxicity, cell-based; conditions: t-24, 72 h, TDE = time-dependent effect
T-24 [31] = experiment: Induction of DNA damage in human T24 cells assessed as increase in […] p53 expression at 2 to 4 uM incubated for 24 hrs by Western blot analysis; type: functional, cell-based; conditions: dose 2-4 µM
T-24 [32] = experiment: Induction of apoptosis in human T24 cells assessed as necrotic cells at 4 uM incubated for 24 hrs by Annexin-V/PI staining based flow cytometry analysis (reference value: 1.92 %); type: functional
T-24 [33] = experiment: Induction of apoptosis in human T24 cells assessed as early apoptotic cells at 6 uM incubated for 24 hrs by Annexin-V/PI staining based flow cytometry analysis (reference value: 3.27 %); type: functional
T-24 [34] = experiment: Induction of apoptosis in human T24 cells assessed as late apoptotic cells at 4 uM incubated for 24 hrs by Annexin-V/PI staining based flow cytometry analysis (reference value: 0.543 %); type: functional
T-24 [35] = experiment: Induction of DNA damage in human T24 cells assessed as increase in gamma H2AX expression at 2 to 4 uM incubated for 24 hrs by Western blot analysis; type: functional, cell-based; conditions: dose 2-4 µM
T-24 [36] = experiment: Induction of mitochondrial membrane potential dysfunction in human T24 cells assessed as depolarised cells at 4 uM incubated for 24 hrs by JC-1 staining based flow cytometry (reference value: 6.20%); type: functional

O=C1c2ccccc2-c2cccc3ccnc1c23
Activity (T-24 [1]): 32.9%
Activity (T-24 [2]): Active
Activity (T-24 [3]): Active
Activity (T-24 [4]): 6.56%
Activity (T-24 [5]): Active
Activity (T-24 [6]): 4.89%
Activity (T-24 [7]): Dde
Activity (T-24 [8]): Active
Activity (T-24 [9]): Active
Activity (T-24 [10]): Active

O=C1c2ccccc2-c2ccc([N+](=O)[O-])c3ccnc1c23
Ratio IC50 (T-24 [11]): 19
Activity (T-24 [12]): Active
Activity (T-24 [13]): Active
Activity (T-24 [14]): Active
Activity (T-24 [15]): 44.5%
Activity (T-24 [16]): Active
Activity (T-24 [17]): Active
Activity (T-24 [18]): Dde
viability at 1 µM (T-24 [19]): 52.6%
Activity (T-24 [20]): 53.6%

O=C1c2cc([N+](=O)[O-])ccc2-c2ccc([N+](=O)[O-])c3ccnc1c23
Activity (T-24 [21]): Active
Activity (T-24 [22]): Active
Activity (T-24 [23]): 6.56%
Activity (T-24 [24]): Active
viability at 4 µM (T-24 [25]): 59.4%
Activity (T-24 [26]): Active
Activity (T-24 [27]): 27.5%
Activity (T-24 [28]): 15.29%
Activity (T-24 [29]): Active
Activity (T-24 [30]): Tde
Activity (T-24 [31]): Active
Activity (T-24 [32]): 2.8%
Activity (T-24 [33]): 36.2%
Activity (T-24 [34]): 5.49%
Activity (T-24 [35]): Active
Activity (T-24 [36]): 31.3%
